Test results as given in ChEMBL document CHEMBL3864168, “Imidazopyridazine Inhibitors of PI3Kβ” (ACS Med Chem Lett, 2016).

Legend:
[1] = target: Phosphatidylinositol 4,5-bisphosphate 3-kinase catalytic subunit gamma isoform (Homo sapiens, UniProt P48736); experiment: Binding affinity to human PI3Kgamma (144 to 1102 residues) expressed in mammalian expression system by KINOMEscan assay
[2] = target: T1, Phosphatidylinositol 4,5-bisphosphate 3-kinase catalytic subunit beta isoform (Homo sapiens, UniProt P42338); experiment: Inhibition of PI3Kbeta in human PC3 cells assessed as suppression of AKT phosphorylation at Ser473 after 60 mins by ELISA; assay type: cell-based, PC-3
T1 sequence (P42338 whole entry, canonical isoform): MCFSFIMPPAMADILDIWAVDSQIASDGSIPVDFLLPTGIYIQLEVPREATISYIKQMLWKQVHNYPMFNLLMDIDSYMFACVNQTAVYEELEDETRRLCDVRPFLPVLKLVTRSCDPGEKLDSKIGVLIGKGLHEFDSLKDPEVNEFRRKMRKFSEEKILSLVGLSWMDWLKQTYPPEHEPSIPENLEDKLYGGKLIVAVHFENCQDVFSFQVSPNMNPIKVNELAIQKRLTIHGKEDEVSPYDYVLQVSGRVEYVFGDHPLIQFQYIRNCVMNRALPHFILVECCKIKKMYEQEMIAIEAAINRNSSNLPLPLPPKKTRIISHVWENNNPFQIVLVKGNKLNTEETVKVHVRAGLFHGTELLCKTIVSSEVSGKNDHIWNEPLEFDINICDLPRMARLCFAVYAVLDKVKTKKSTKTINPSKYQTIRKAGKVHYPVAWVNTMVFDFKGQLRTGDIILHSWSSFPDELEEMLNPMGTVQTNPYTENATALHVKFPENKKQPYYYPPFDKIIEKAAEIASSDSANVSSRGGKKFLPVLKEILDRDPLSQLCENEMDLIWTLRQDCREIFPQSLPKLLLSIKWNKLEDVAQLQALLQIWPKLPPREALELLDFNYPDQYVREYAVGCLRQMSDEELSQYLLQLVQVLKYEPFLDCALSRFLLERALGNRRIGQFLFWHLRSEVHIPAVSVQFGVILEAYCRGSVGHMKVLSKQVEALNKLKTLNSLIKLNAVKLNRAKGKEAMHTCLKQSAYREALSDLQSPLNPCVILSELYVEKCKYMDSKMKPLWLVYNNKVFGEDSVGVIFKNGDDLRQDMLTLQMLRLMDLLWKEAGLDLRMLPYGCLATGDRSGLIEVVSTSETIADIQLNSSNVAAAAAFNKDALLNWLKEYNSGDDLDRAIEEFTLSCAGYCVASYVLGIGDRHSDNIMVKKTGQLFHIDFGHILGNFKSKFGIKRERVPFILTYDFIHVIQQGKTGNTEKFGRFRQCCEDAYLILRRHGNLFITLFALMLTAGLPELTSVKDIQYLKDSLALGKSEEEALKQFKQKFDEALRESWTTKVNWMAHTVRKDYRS

[3] = target: T1, Phosphatidylinositol 4,5-bisphosphate 3-kinase catalytic subunit beta isoform; experiment: Inhibition of PI3Kbeta in human PC3 cells assessed as suppression of AKT phosphorylation at Thr308 after 60 mins by ELISA; assay type: cell-based, PC-3
[4] = target: Phosphatidylinositol 4,5-bisphosphate 3-kinase catalytic subunit alpha isoform (Homo sapiens, UniProt P42336); experiment: Binding affinity to human PI3Kalpha (108 to 1068 residues) expressed in mammalian expression system by KINOMEscan assay
Phosphatidylinositol 4,5-bisphosphate 3-kinase catalytic subunit alpha isoform, sequence (P42336 whole entry, the tested form may be a part, canonical isoform): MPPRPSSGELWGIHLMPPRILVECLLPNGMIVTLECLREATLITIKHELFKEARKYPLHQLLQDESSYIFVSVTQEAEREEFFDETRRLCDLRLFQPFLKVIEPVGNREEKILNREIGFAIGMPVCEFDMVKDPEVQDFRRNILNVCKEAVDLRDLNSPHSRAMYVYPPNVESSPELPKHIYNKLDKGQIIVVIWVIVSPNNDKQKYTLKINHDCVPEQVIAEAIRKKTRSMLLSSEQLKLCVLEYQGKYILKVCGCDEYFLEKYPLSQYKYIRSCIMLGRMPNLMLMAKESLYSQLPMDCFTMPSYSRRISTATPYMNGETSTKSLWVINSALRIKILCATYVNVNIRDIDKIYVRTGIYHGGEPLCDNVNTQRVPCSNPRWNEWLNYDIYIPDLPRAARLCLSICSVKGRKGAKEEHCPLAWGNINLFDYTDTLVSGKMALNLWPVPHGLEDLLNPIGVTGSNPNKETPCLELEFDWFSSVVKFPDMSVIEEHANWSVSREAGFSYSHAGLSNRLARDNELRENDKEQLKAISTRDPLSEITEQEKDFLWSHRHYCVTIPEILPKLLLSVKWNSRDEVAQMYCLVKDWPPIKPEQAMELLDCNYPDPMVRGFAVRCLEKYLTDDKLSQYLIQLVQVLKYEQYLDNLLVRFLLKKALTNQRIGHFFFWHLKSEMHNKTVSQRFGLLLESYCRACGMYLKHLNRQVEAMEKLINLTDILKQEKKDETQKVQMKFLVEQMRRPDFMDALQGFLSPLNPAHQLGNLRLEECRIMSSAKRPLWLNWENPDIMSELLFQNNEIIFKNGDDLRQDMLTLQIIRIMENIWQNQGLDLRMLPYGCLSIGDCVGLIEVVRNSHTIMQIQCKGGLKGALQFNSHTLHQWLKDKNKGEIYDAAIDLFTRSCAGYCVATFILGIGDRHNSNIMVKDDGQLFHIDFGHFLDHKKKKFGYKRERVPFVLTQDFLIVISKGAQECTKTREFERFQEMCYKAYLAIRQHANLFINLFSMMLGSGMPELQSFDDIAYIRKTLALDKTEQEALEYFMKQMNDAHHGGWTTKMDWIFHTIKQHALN

[5] = target: T1, Phosphatidylinositol 4,5-bisphosphate 3-kinase catalytic subunit beta isoform; experiment: Binding affinity to human PI3Kbeta (118 to 1070 residues) expressed in mammalian expression system by KINOMEscan assay
[6] = target: T2, Phosphatidylinositol 4,5-bisphosphate 3-kinase catalytic subunit delta isoform (Homo sapiens, UniProt O00329); experiment: Binding affinity to human PI3Kdelta (108 to 1044 residues) expressed in mammalian expression system by KINOMEscan assay
T2 sequence (O00329 whole entry): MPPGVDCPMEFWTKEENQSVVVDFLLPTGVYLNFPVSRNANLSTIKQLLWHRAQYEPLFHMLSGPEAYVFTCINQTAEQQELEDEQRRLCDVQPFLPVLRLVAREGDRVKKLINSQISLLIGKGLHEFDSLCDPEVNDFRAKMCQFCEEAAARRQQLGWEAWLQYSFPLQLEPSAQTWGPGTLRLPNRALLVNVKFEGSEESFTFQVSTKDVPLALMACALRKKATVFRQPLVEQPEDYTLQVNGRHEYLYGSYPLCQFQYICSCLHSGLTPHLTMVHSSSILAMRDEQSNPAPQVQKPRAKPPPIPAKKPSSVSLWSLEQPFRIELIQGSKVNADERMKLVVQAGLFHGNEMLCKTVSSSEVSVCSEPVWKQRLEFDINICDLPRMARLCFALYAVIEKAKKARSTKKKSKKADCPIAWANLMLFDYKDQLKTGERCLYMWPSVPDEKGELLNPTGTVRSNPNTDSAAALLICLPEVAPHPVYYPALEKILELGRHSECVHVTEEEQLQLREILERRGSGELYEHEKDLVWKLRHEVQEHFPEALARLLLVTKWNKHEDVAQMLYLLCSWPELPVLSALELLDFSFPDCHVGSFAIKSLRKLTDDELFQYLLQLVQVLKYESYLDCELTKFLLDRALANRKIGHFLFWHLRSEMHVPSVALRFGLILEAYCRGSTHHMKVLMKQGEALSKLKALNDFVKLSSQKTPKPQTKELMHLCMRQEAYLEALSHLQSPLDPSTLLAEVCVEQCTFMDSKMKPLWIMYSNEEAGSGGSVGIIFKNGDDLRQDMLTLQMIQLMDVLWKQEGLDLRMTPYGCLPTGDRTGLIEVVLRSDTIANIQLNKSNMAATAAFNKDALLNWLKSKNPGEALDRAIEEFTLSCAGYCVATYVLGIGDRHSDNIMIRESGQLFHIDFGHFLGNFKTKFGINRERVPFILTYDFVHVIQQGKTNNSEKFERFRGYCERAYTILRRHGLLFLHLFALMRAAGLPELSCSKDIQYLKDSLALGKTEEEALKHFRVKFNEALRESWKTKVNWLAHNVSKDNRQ

[7] = target: Serine/threonine-protein kinase mTOR (Homo sapiens, UniProt P42345); experiment: Binding affinity to human MTOR (1382 to 2549 residues) expressed in mammalian expression system by KINOMEscan assay

Phosphatidylinositol 4,5-bisphosphate 3-kinase catalytic subunit gamma isoform, sequence (P48736 whole entry, the tested form may be a part, canonical isoform): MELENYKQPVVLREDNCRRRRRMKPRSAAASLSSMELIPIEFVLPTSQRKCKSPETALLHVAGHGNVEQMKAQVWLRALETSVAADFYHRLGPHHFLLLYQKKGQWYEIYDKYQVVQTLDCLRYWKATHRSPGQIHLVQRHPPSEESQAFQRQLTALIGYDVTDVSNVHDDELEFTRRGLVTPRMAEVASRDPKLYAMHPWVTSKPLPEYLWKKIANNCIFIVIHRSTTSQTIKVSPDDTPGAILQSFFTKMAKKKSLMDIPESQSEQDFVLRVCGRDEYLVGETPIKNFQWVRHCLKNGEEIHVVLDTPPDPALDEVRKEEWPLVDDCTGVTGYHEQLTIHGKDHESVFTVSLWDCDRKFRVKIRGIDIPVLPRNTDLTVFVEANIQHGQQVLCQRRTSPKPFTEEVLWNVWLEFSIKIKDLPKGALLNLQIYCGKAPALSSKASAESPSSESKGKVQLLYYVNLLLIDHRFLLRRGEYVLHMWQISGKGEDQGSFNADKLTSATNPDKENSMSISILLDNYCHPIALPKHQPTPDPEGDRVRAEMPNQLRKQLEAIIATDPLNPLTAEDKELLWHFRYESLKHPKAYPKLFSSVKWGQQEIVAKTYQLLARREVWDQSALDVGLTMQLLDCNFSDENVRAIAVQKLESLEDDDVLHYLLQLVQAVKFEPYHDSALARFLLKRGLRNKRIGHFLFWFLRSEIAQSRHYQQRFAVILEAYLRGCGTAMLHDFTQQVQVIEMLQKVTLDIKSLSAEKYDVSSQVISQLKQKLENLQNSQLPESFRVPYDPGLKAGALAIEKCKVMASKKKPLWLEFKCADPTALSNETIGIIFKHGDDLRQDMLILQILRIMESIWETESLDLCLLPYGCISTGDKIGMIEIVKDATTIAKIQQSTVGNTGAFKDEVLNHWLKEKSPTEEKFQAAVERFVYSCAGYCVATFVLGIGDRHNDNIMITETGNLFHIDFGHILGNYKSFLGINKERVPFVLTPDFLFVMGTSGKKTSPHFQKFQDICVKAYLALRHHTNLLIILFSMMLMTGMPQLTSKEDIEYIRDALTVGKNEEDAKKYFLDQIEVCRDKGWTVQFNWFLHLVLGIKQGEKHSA

Row | Kd [1] [µM] | IC50 [2] [nM] | IC50 [3] [nM] | Kd [4] [µM] | Kd [5] [nM] | Kd [6] [nM] | Kd [7] [µM] | Structure (SMILES)
1 | > 30.2 | 138 | 186 |  |  |  |  | Cc1c(Cc2c(CNCCS(C)(=O)=O)nc3c(N)cc(N4CCOCC4)nn23)cccc1C(F)(F)F
2 |  | 174 | 17 |  |  |  |  | Cc1nc2c(-c3cnc[nH]3)cc(N3CCOCC3)nn2c1Nc1cccc(C(F)(F)F)c1CN1CC(O)C1
3 | 11.4 | 12 | 17 | 5.13 | 6 | 171 | 20.3 | Cc1nc2c(N)cc(N3CCOCC3)nn2c1Cc1cccc(C(F)(F)F)c1C
4 |  | 59 | 48 |  |  |  |  | Cc1nc2c(-c3cnc[nH]3)cc(N3CCOCC3)nn2c1Cc1cccc(C(F)(F)F)c1C
5 | > 30.2 | 33 | 11 | > 30.2 | 2 | 59 | > 30.2 | CC(=O)NCc1nc2c(-c3cnc[nH]3)cc(N3CCOCC3)nn2c1Cc1cccc(C(F)(F)F)c1C
6 |  | 513 | 316 |  |  |  |  | Cc1nc2c(C(=O)O)cc(N3CCOCC3)nn2c1Cc1cccc(C(F)(F)F)c1C
7 | 2.29 | 12 | 8 | 0.912 | 2.6 | 49 | 4.68 | Cc1nc2c(-c3cnc[nH]3)cc(N3CCOCC3)nn2c1Nc1cccc(C(F)(F)F)c1C
8 | 19.6 | 44 | 33 |  |  | 73 | > 30.2 | Cc1nc2c(N)cc(N3CCOCC3)nn2c1Nc1cccc(C(F)(F)F)c1CN1CC(O)C1
9 | > 30.2 | 501 | > 513 | > 30.2 |  |  | > 30.2 | Cc1nc2c(C(N)=O)cc(N3CCOCC3)nn2c1Cc1cccc(C(F)(F)F)c1C
10 | > 10 | 46 | 38 | > 30.2 |  |  |  | Cc1c(Cc2c(CO)nc3c(N)cc(N4CCOCC4)nn23)cccc1C(F)(F)F [listing 1 of 2 here]
11 | > 15.1 | > 513 | > 513 |  |  |  |  | Cc1c(Cc2c(CO)nc3c(C(=O)O)cc(N4CCOCC4)nn23)cccc1C(F)(F)F
12 |  | 21 | 17 |  |  |  |  | Cc1nc2c(N)cc(N3CCOCC3)nn2c1Nc1cccc(C(F)(F)F)c1CN1CCN(C)CC1
13 | > 30.2 | 34 | 41 |  |  |  |  | Cc1c(Cc2c(CN(C)CCS(C)(=O)=O)nc3c(N)cc(N4CCOCC4)nn23)cccc1C(F)(F)F
14 |  | 52 | 41 |  |  |  |  | Cc1c(Cc2c(CO)nc3c(N)cc(N4CCOCC4)nn23)cccc1C(F)(F)F [listing 2 of 2 here]

Row | Structure (SMILES) | Kd [1] [µM] | IC50 [2] [nM] | IC50 [3] [nM] | Kd [4] [µM] | Kd [5] [nM] | Kd [6] [nM] | Kd [7] [µM]
15 | Cc1c(Nc2c(CO)nc3c(N)cc(N4CCOC(CO)C4)nn23)cccc1C(F)(F)F (stereo in doubt; 66) | 13.5 | > 513 | 513 | > 30.2 | 138 | 11000 | 1.38
16 | Cc1c(Nc2c(CO)nc3c(N)cc(N4CCOC(CO)C4)nn23)cccc1C(F)(F)F (stereo in doubt; 65) | 0.692 | 79 | 43 | 6.61 | 1.3 | 138 | 0.355
